Experimental data reported in patent US7928060B2, “Amylin family polypeptide-6 (AFP-6) analogs and methods of making and using them” (Amylin Pharmaceuticals, Inc., priority 2004, dated 2011).
Bridge positions count the residues as written; N and C are the ends. Ends that are not written are not given here. Peptide text beside a SMILES is read from it.

Tests used:
[1] = target: T1, CGRP receptors (Homo sapiens, UniProt O60894+Q16602); assay: CGRP radioligand binding assay (125I-hCGRP, SK-N-MC cell membranes); details: Table 6
T1 construct: membranes prepared from SK-N-MC cells, known to express CGRP receptors; endogenous in cells; host or cells: SK-N-MC cell membranes
T1 sequence (Q16602 23-461): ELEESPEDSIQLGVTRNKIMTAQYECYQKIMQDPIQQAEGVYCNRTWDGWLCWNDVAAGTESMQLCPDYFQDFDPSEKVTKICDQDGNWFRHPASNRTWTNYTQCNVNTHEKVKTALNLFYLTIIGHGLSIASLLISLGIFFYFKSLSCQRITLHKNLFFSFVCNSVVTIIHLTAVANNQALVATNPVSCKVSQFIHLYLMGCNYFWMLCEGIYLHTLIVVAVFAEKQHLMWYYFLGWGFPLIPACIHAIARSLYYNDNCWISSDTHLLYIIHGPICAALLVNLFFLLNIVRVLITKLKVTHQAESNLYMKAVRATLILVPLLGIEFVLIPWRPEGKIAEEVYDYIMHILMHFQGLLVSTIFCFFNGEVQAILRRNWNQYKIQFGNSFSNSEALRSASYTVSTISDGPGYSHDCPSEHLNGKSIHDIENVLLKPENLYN
T1 sequence (O60894 27-148): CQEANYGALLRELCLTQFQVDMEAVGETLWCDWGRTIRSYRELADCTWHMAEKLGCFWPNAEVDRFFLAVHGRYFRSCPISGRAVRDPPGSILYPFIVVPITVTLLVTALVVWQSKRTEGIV

[2] = target: T2, amylin receptors (Rattus norvegicus, UniProt P32214); assay: amylin radioligand binding assay (125I-rat amylin, nucleus accumbens membranes); details: Table 6; read-out: Amylin receptor binding
T2 construct: This basal forebrain tissue, containing the nucleus accumbens and surrounding regions, was weighed and homogenized; from tissue; host or cells: rat basal forebrain (nucleus accumbens) membranes, male Sprague-Dawley rats
T2 sequence (P32214 25-516): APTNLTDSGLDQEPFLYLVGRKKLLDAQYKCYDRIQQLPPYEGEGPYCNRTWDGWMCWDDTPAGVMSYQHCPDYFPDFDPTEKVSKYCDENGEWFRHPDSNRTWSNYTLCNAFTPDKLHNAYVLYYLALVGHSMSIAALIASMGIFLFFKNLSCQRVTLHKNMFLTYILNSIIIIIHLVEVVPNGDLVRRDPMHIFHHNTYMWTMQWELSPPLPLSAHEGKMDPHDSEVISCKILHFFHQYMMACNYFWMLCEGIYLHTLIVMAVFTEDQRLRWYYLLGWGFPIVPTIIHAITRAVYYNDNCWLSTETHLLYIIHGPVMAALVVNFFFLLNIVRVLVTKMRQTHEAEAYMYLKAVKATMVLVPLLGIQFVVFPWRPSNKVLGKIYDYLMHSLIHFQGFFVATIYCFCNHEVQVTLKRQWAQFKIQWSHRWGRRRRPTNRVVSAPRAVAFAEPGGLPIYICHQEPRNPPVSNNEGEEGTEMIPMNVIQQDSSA
Procedure: Unlabeled peptides were obtained from BACHEM Inc. (Torrance, Calif.).
Male Sprague-Dawley® rats (200-250) grams were sacrificed by decapitation. Brains were removed and place in cold phosphate-buffered saline (PBS). From the ventral surface, cuts were made rostral to the hypothalamus, bounded laterally by the olfactory tracts and extending at a 45° angle medially from these tracts. […] Membranes were washed three times in fresh buffer by centrifugation for 15 minutes at 48,000×g. The final membrane pellet was resuspended in 20 mM HEPES buffer containing 0.2 mM phenylmethylsulfonyl fluoride (PMSF).
Solutions were incubated for 60 minutes at 2 C. […] Filters were washed immediately before filtration with 5 ml cold PBS, and immediately after filtration with 15 ml cold PBS. […] Competition curves were generated by measuring binding in the presence of 10^−12 to 10^−6 M unlabeled test compound and were analyzed by nonlinear regression using a 4-parameter logistic equation (INPLOT program; […] Software, San Diego, Calif.).

[3] = target: T3, calcitonin receptor (Rattus norvegicus, UniProt P32214); assay: calcitonin receptor binding assay (rCalcitonin RBA); details: Table 6; read-out: CT receptor binding
T3 sequence (P32214 25-516): T2 sequence (P32214 25-516)

[4] = target: adrenomedullin receptor (Homo sapiens, UniProt O60895+Q16602); assay: adrenomedullin (ADM) receptor binding assay; details: Table 6
Sequence of adrenomedullin receptor (Q16602 23-461): as the sequence (Q16602 23-461) above
Sequence of adrenomedullin receptor (O60895 43-175): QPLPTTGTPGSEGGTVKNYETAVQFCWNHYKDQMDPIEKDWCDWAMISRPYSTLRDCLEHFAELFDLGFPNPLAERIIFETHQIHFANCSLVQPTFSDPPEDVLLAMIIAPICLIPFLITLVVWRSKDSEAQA

[5] = test system: NIH/Swiss mice; assay: acute food intake assay in overnight-fasted mice, IP injection; format: in vivo, mouse
Procedure: The effect of AFP-6 on food intake was investigated using an acute food intake assay. This assay measured food consumption in lean, group-housed, overnight-fasted NIH/Swiss mice. 12 mice were housed 3 to a cage. The sample compound, in this case AFP-6, was injected IP in mice and food intake was measured during the next 2-hours. Decreased, as well as increased, food intake can be measured. Testing various doses of the compound generated ED50's. The assay was performed as follows: 1. Remove food (water ad libitum) at 5:00 pm the evening before the study. 2. Weigh food pellets (3 pellets/cage). 3. Inject animals intraperitoneally with 200 ul of appropriate solution, t=0. 4. Immediately add pre-weighed food to each cage (away from water bottle spout) and allow animals to feed undisturbed. 5. At 30, 60, and 120 minutes, collect and weigh food. 6. Analyze data. Data points represent mean ±sd of n=12.
Twelve mice were injected IP at t=0 for each dose, 0.3, 1, 3, 10, 30, 100, or 300 nmol/kg of AFP-6 (Amylin Pharmaceuticals, Inc.) (n=12/group). Food was introduced immediately after injection and amount consumed measured at t=30, 60, and 120 min.

Row | Compound | IC50 [1] [nM] | IC50 [2] [nM] | IC50 [3] [nM] | IC50 [4] [nM] | inhibition of food intake ([5]; 0.63 mg/kg, mice, not significant) [%] | FI 30 min ED50 ([5]; food intake, 30 min) [nmol/kg] | FI 60 min ED50 ([5]; food intake, 60 min) [nmol/kg]
1 | VQNLSHRLWQLMGPAGRQDSAPVDPSSPHSY-NH2 [compound 14] | > 1000 | > 1000 | > 1000 | 59 | – | – | –
2 | CC(C)C[C@H](NC(=O)[C@H](CCC(N)=O)NC(=O)[C@H](Cc1c[nH]c2ccccc12)NC(=O)[C@H](CC(C)C)NC(=O)[C@H](CCCNC(=N)N)NC(=O)[C@H](Cc1c[nH]cn1)NC(=O)[C@H](CO)NC(=O)[C@H](CC(C)C)NC(=O)[C@H](CC(N)=O)NC(=O)[C@H](CCC(N)=O)NC(=O)[C@@H](NC(=O)[C@H](CCC(N)=O)NC(=O)[C@@H]1CSSC[C@H](NC(=O)CN)C(=O)N[C@@H](C(C)C)C(=O)N[C@@H](CC(C)C)C(=O)NCC(=O)N[C@@H]([C@@H](C)O)C(=O)N1)C(C)C)C(=O)N[C@@H](CCCNC(=N)N)C(=O)N[C@@H](CCC(N)=O)C(=O)N[C@@H](CCC(=O)O)C(=O)N[C@@H](CO)C(=O)N[C@@H](C)C(=O)N1CCC[C@H]1C(=O)N[C@H](C(=O)N[C@@H](CCC(=O)O)C(=O)N1CCC[C@H]1C(=O)N[C@@H](CO)C(=O)N[C@@H](CO)C(=O)N1CCC[C@H]1C(=O)N[C@@H](Cc1c[nH]cn1)C(=O)N[C@@H](CO)C(=O)N[C@@H](Cc1ccc(O)cc1)C(N)=O)C(C)C [compound 40] (H-GCVLGTCQVQNLSHRLWQLRQESAPVEPSSPHSY-NH2; disulfide 2-7) | > 1000 | > 1000 | > 1000 | ≥ 1000 | – | – | –
3 | CC(C)C[C@H](NC(=O)[C@H](CCC(N)=O)NC(=O)[C@H](Cc1c[nH]c2ccccc12)NC(=O)[C@H](CC(C)C)NC(=O)[C@H](CCCNC(=N)N)NC(=O)[C@H](Cc1c[nH]cn1)NC(=O)[C@H](CO)NC(=O)[C@H](CC(C)C)NC(=O)[C@H](CC(N)=O)NC(=O)[C@H](CCC(N)=O)NC(=O)[C@@H](NC(=O)[C@H](CCC(N)=O)NC(=O)[C@@H]1CSSC[C@H](NC(=O)CNC(=O)[C@@H](N)C(C)C)C(=O)N[C@@H](C(C)C)C(=O)N[C@@H](CC(C)C)C(=O)NCC(=O)N[C@@H]([C@@H](C)O)C(=O)N1)C(C)C)C(=O)N[C@@H](CCCNC(=N)N)C(=O)N[C@@H](CCC(N)=O)C(=O)N[C@@H](CC(=O)O)C(=O)N[C@@H](CO)C(=O)N[C@@H](C)C(=O)N1CCC[C@H]1C(=O)N[C@H](C(=O)N[C@@H](CCC(=O)O)C(=O)N1CCC[C@H]1C(=O)N[C@@H](CO)C(=O)N[C@@H](CO)C(=O)N1CCC[C@H]1C(=O)N[C@@H](Cc1c[nH]cn1)C(=O)N[C@@H](CO)C(=O)N[C@@H](Cc1ccc(O)cc1)C(N)=O)C(C)C [compound 36] (H-VGCVLGTCQVQNLSHRLWQLRQDSAPVEPSSPHSY-NH2; disulfide 3-8 (inferred)) | – | 39 | 198 | ≥ 1000 | – | – | –
4 | H-VGMVLGTMQVQNLSHRLWQLRQDSAPVDPSSPHSY-NH2 [compound 27] | > 1000 | > 1000 | > 1000 | ≥ 1000 | – | – | –
5 | Rat calcitonin: rat calcitonin, reference peptide in the food intake assay (CGNLSTCMLGTYTQDLNKFHTFPQTSIGVGAP; ends and bridges not checked; cysteine pairing not given here; UniProt P01257 85-116, looked up) | – | – | – | – | 16 | – | –
6 | CC(C)C[C@@H]1NC(=O)[C@H](CC(N)=O)NC(=O)CNC(=O)[C@@H](NC(=O)CN)CSSC[C@@H](C(=O)N[C@@H](CCC(N)=O)C(=O)N[C@H](C(=O)N[C@@H](CCC(N)=O)C(=O)N[C@@H](CC(N)=O)C(=O)N[C@@H](CC(C)C)C(=O)N[C@@H](CO)C(=O)N[C@@H](Cc2c[nH]cn2)C(=O)N[C@@H](CCCNC(=N)N)C(=O)N[C@@H](CC(C)C)C(=O)N[C@@H](Cc2c[nH]c3ccccc23)C(=O)N[C@@H](CCC(N)=O)C(=O)N[C@@H](CC(C)C)C(=O)N[C@@H](CCCNC(=N)N)C(=O)N[C@@H](CCC(N)=O)C(=O)N[C@@H](CC(=O)O)C(=O)N[C@@H](CO)C(=O)N[C@@H](C)C(=O)N2CCC[C@H]2C(=O)N[C@H](C(=O)N[C@@H](CCC(=O)O)C(=O)N2CCC[C@H]2C(=O)N[C@@H](CO)C(=O)N[C@@H](CO)C(=O)N2CCC[C@H]2C(=O)N[C@@H](Cc2c[nH]cn2)C(=O)N[C@@H](CO)C(=O)N[C@@H](Cc2ccc(O)cc2)C(N)=O)C(C)C)C(C)C)NC(=O)[C@H]([C@@H](C)O)NC(=O)[C@H](CO)NC1=O [compound 39] (H-GCGNLSTCQVQNLSHRLWQLRQDSAPVEPSSPHSY-NH2; disulfide 2-8 (inferred); N-terminus assumed) | > 1000 | – | 31 | ≥ 1000 | – | – | –
7 | CC(C)C[C@H](NC(=O)[C@H](CCC(N)=O)NC(=O)[C@H](Cc1c[nH]c2ccccc12)NC(=O)[C@H](CC(C)C)NC(=O)[C@H](CCCNC(=N)N)NC(=O)[C@H](Cc1c[nH]cn1)NC(=O)[C@H](CO)NC(=O)[C@H](CC(C)C)NC(=O)[C@H](CC(N)=O)NC(=O)[C@H](CCC(N)=O)NC(=O)[C@@H](NC(=O)[C@H](CCC(N)=O)NC(=O)[C@@H]1CSSC[C@H](NC(=O)[C@@H](N)C(C)C)C(=O)N[C@@H](CC(N)=O)C(=O)N[C@@H]([C@@H](C)O)C(=O)N[C@@H](C)C(=O)N[C@@H]([C@@H](C)O)C(=O)N1)C(C)C)C(=O)N[C@@H](CCCNC(=N)N)C(=O)N[C@@H](CCC(N)=O)C(=O)N[C@@H](CC(=O)O)C(=O)N[C@@H](CO)C(=O)N[C@@H](C)C(=O)N1CCC[C@H]1C(=O)N[C@H](C(=O)N[C@@H](CC(=O)O)C(=O)N1CCC[C@H]1C(=O)N[C@@H](CO)C(=O)N[C@@H](CO)C(=O)N1CCC[C@H]1C(=O)N[C@@H](Cc1c[nH]cn1)C(=O)N[C@@H](CO)C(=O)N[C@@H](Cc1ccc(O)cc1)C(N)=O)C(C)C [compound 30] (H-VCNTATCQVQNLSHRLWQLRQDSAPVDPSSPHSY-NH2; disulfide 2-7 (inferred)) | 37 | – | 128 | ≥ 1000 | – | – | –
8 | r/h Adrenomedullin: Amylin Family polypeptide of Table 3; r/h not resolved per value | – | – | – | – | – | 18 | 13
9 | CSCC[C@H](NC(=O)[C@H](CC(C)C)NC(=O)[C@H](CCC(N)=O)NC(=O)[C@H](Cc1c[nH]c2ccccc12)NC(=O)[C@H](CC(C)C)NC(=O)[C@H](CCCNC(=N)N)NC(=O)[C@H](Cc1c[nH]cn1)NC(=O)[C@H](CO)NC(=O)[C@H](CC(C)C)NC(=O)[C@H](CC(N)=O)NC(=O)[C@H](CCC(N)=O)NC(=O)[C@@H](NC(=O)[C@H](CCC(N)=O)NC(=O)[C@@H]1CSSC[C@H](NC(=O)CNC(=O)[C@@H](N)C(C)C)C(=O)N[C@@H](C(C)C)C(=O)N[C@@H](CC(C)C)C(=O)NCC(=O)N[C@@H]([C@@H](C)O)C(=O)N1)C(C)C)C(=O)NCC(=O)N1CCC[C@H]1C(=O)N[C@@H](C)C(=O)NCC(=O)N[C@@H](CCCNC(=N)N)C(=O)N[C@@H](CCC(N)=O)C(=O)N[C@@H](CC(=O)O)C(=O)N[C@@H](CO)C(=O)N[C@@H](C)C(=O)N1CCC[C@H]1C(=O)N[C@H](C(=O)N[C@@H](CC(=O)O)C(=O)N1CCC[C@H]1C(=O)N[C@@H](CO)C(=O)N[C@@H](CO)C(=O)N1CCC[C@H]1C(=O)N[C@@H](Cc1c[nH]cn1)C(=O)N[C@@H](CO)C(=O)N[C@@H](Cc1ccc(O)cc1)C(N)=O)C(C)C [compound 2] | – | 12 | 24 | 6.4 | – | – | –
